Values of other authors, collected in patent US10351593B2, “Derivatives of dolastatin 10 and uses thereof” (NewBio Therapeutics, Inc., priority 2015, dated 2019).
pIC50: −log10 of the molar value.

System: human carcinoma lines

pIC50: 6.70 to 7.00
Compound: COc1cccc2c1C(=O)c1c(O)c3c(c(O)c1C2=O)C[C@@](O)(C(=O)CO)C[C@@H]3O[C@H]1C[C@H](N)[C@H](O)[C@H](C)O1 [doxorubicin]
